Data from patent publication US9593305B2, “Differentiation of pluripotent stem cells” (Janssen Biotech, Inc., priority 2008, dated 2017).

Tested on: H1 human embryonic stem cells
Assay: Secondary assay: panel of compounds with growth factor combinations and muscimol, no activin A (Example 6, Table 5)
Assay type: cell-based
Conditions: no AA (with Wnt3a)
Description: Clusters of H1 human embryonic stem cells were grown on reduced growth factor […]™ (Invitrogen; Cat #356231)-coated tissue culture plastic. Cells were passaged using collagenase (Invitrogen; Cat #17104-019) treatment and gentle scraping, washed to remove residual enzyme, and plated with even dispersal at a ratio of 1:1 (surface area) on reduced growth factor […]™-coated 96-well black plates (Packard ViewPlates; PerkinElmer; Cat #6005182) using volumes of 100 μl/well. Cells were allowed to attach as clusters and then recover log phase growth over a 1 to 3 day period, feeding daily with MEF-conditioned medium supplemented with 8 ng/ml bFGF (R&D Systems; Cat #233-FB). Plates were maintained at 37° C., 5% CO2 in a humidified box throughout the duration of the assay. Stocks of growth factors purchased from R&D Systems were EGF (Cat #236-EG), FGF4 (Cat #235-F4), PDGF-A (Cat #221-AA), PDGF-D (Cat #1159-SB), PDGF-A/B (Cat #222-AB), and VEGF (Cat #293-VE). […] All growth factors were solubilized in PBS with 0.1% BSA (Sigma; Cat #A7888) and stored frozen at −80° C. […] Cat #D2650) and stored frozen at −80° C. Compounds were available as 5 mM stocks in 96-well plate format, solubilized in 100% DMSO and stored at −80° C. Compounds were further diluted to an intermediate concentration of 0.2 mM in 50 mM HEPES (Invitrogen; Cat #15630-080), 20% DMSO and stored at 4° C. All growth factors and inhibitors were prepared in a deep well, 96-well polypropylene plate, diluted to 5× intermediate stocks in DMEM:F12 base medium at the beginning of assay and stored at 4° C. A secondary screening assay was conducted, testing in triplicate and feeding on alternate days over the four-day assay timeframe. Assays were initiated by aspirating culture medium from each well followed by three washes in PBS to remove residual growth factors and serum. Test volumes of 80 μl per well were added back containing DMEM:F12 base medium (Invitrogen; Cat #11330-032) supplemented with 0.625% FCS (HyClone; […] All remaining growth factors were tested at a final assay concentration of 50 ng/ml (EGF, FGF4, PDGF-A, PDGF-A/B, VEGF). […] At the conclusion of four-days of culture, assay plates were washed twice with PBS, fixed with 4% paraformaldehyde (Alexis Biochemical; Cat #ALX-350-011) at room temperature for 20 minutes, then washed three times with PBS and permeabilized with 0.5% Triton X-100 (Sigma; Cat #T8760-2) for 20 minutes at room temperature. Cells were washed again three times with PBS and blocked with 4% chicken serum (Invitrogen; Cat #16110082) in PBS for 30 minutes at room temperature. Primary antibody (goat anti-human SOX17; R&D Systems; cat #AF1924) was diluted 1:100 in 4% chicken serum and added to each well for one hour at room temperature. Alexa Fluor 488 conjugated secondary antibody (chicken anti-goat IgG; Molecular Probes; Cat #AZ1467) was diluted 1:200 in PBS and added to each sample well after washing three times with PBS. To counterstain nuclei, 4 μg/ml Hoechst 33342 (Invitrogen; Cat #H3570) was added for ten minutes at room temperature. Plates were washed once with PBS and left in 100 μl/well PBS for imaging. Imaging was performed using an IN Cell Analyzer 1000 (GE Healthcare) utilizing the 51008bs dichroic for cells stained with Hoechst 33342 and Alexa Fluor 488. Exposure times were optimized from positive control wells and from untreated negative control wells stained with secondary antibody alone. Images from 15 fields per well were acquired to compensate for any cell loss during the bioassay and subsequent staining procedures. […] Segmentation for the nuclei was determined based on grayscale levels (baseline range 100-300) and nuclear size. Averages and standard deviations were calculated for each replicate data set. Total SOX17 protein expression was reported as total intensity or integrated intensity, defined as total fluorescence of the cell multiplied by the area of the cell. […]

[1] = EGF + FGF4 + PDGF-AB + Muscimol

Compound | Cell Number, % of positive control (EGF) [%] | Cell Number, Average Total Cell Number (EGF) | Sox17 Expression, % of positive control (EGF) [%] | Sox17 Expression, Average Total Intensity (EGF) | Cell Number, % of positive control (EGF + FGF4) [%] | Cell Number, Average Total Cell Number (EGF + FGF4) | Sox17 Expression, % of positive control (EGF + FGF4) [%] | Sox17 Expression, Average Total Intensity (EGF + FGF4) | Cell Number, % of positive control (EGF + FGF4 + PDGF-A + Muscimol) [%] | Cell Number, Average Total Cell Number (EGF + FGF4 + PDGF-A + Muscimol) | Sox17 Expression, % of positive control (EGF + FGF4 + PDGF-A + Muscimol) [%] | Sox17 Expression, Average Total Intensity (EGF + FGF4 + PDGF-A + Muscimol) | Cell Number, % of positive control (EGF + FGF4 + PDGF-A + VEGF) [%] | Cell Number, Average Total Cell Number (EGF + FGF4 + PDGF-A + VEGF) | Sox17 Expression, % of positive control (EGF + FGF4 + PDGF-A + VEGF) [%] | Sox17 Expression, Average Total Intensity (EGF + FGF4 + PDGF-A + VEGF) | Cell Number, % of positive control (EGF + FGF4 + PDGF-AB) [%] | Cell Number, Average Total Cell Number (EGF + FGF4 + PDGF-AB) | Sox17 Expression, % of positive control (EGF + FGF4 + PDGF-AB) [%] | Sox17 Expression, Average Total Intensity (EGF + FGF4 + PDGF-AB) | further results
O=C1NCCCc2cncc(c2)-c2ncnc(n2)Nc2cccc(c2)CN2CCCC1C2 (stereo not drawn) [Compound 17, 3,5,7,14,20,26,31-Heptaazapentacyclo[22.3.1.1-2,6˜1˜8,12˜1˜14,18˜]hentriaconta-1(28), 2(31), 3,5,8(30), 9,11,24,26-nonaen-19-one] | 73.43 | 6942 | 0.74 | 1.27E+06 | 60.69 | 5738 | 1.83 | 3.14E+06 | 144.37 | 13649 | 8.43 | 1.45E+07 | 110.85 | 10480 | 5.23 | 8.97E+06 | 47.10 | 4453 | 0.54 | 9.30E+05 | Cell Number, % of positive control [1]: 109.91%; Cell Number, Average Total Cell Number [1]: 10391; Sox17 Expression, % of positive control [1]: 5.20%; Sox17 Expression, Average Total Intensity [1]: 8.92E+06; Cell Number, % of positive control (EGF + PDGF-A + VEGF): 60.59%; Cell Number, Average Total Cell Number (EGF + PDGF-A + VEGF): 5728; Sox17 Expression, % of positive control (EGF + PDGF-A + VEGF): 1.24%; Sox17 Expression, Average Total Intensity (EGF + PDGF-A + VEGF): 2.14E+06; Cell Number, % of positive control (FGF4 + PDGF-A + VEGF): 139.59%; Cell Number, Average Total Cell Number (FGF4 + PDGF-A + VEGF): 13198; Sox17 Expression, % of positive control (FGF4 + PDGF-A + VEGF): 7.54%; Sox17 Expression, Average Total Intensity (FGF4 + PDGF-A + VEGF): 1.29E+07
O=C1NCCCc2cncc(c2)-c2ncnc(n2)Nc2cc(Cl)cc(c2)CN2CCCC1C2 (stereo not drawn) [Compound 37, 10-Chloro-3,5,7,14,20,26,31-heptaazapentacyclo[22.3.1.1˜2,6˜0.1˜8,12˜0.1˜14,18˜]hentriaconta-1(28), 2(31), 3,5,8(30), 9,11,24,26-nonaen-19-one] | 76.17 | 7966 | −7.42 | −1.19E+07 | 66.28 | 6932 | −2.89 | −4.62E+06 | 55.66 | 5821 | −7.64 | −1.22E+07 | 83.93 | 8778 | 0.09 | 1.39E+05 | 71.46 | 7473 | −1.63 | −2.61E+06 | Cell Number, % of positive control [1]: 75.67%; Cell Number, Average Total Cell Number [1]: 7914; Sox17 Expression, % of positive control [1]: −1.20%; Sox17 Expression, Average Total Intensity [1]: −1.91E+06; Cell Number, % of positive control (EGF + PDGF-A + VEGF): 123.88%; Cell Number, Average Total Cell Number (EGF + PDGF-A + VEGF): 12956; Sox17 Expression, % of positive control (EGF + PDGF-A + VEGF): −7.82%; Sox17 Expression, Average Total Intensity (EGF + PDGF-A + VEGF): −1.25E+07; Cell Number, % of positive control (FGF4 + PDGF-A + VEGF): 64.36%; Cell Number, Average Total Cell Number (FGF4 + PDGF-A + VEGF): 6731; Sox17 Expression, % of positive control (FGF4 + PDGF-A + VEGF): −6.89%; Sox17 Expression, Average Total Intensity (FGF4 + PDGF-A + VEGF): −1.10E+07
CCN1CC(=O)NCCCc2cncc(c2)-c2ncnc(n2)Nc2cc(Cl)cc(c2)C1 [Compound 35, 10-Chloro-14-ethyl-3,5,7,14,17,23,27-heptaazatetracyclo[19.3.1.1˜2,6˜0.1˜8,12]Theptacosa-1(25), 2(27), 3,5,8(26), 9,11,21,23-nonaen-16-one] | 228.40 | 23887 | −6.32 | −1.01E+07 | 203.36 | 21268 | 0.85 | 1.36E+06 | 147.80 | 15457 | 43.15 | 6.89E+07 | 154.25 | 16132 | 57.04 | 9.11E+07 | 168.39 | 17611 | 8.03 | 1.28E+07 | Cell Number, % of positive control [1]: 171.62%; Cell Number, Average Total Cell Number [1]: 17949; Sox17 Expression, % of positive control [1]: 0.96%; Sox17 Expression, Average Total Intensity [1]: 1.54E+06; Cell Number, % of positive control (EGF + PDGF-A + VEGF): 222.23%; Cell Number, Average Total Cell Number (EGF + PDGF-A + VEGF): 23242; Sox17 Expression, % of positive control (EGF + PDGF-A + VEGF): 7.72%; Sox17 Expression, Average Total Intensity (EGF + PDGF-A + VEGF): 1.23E+07; Cell Number, % of positive control (FGF4 + PDGF-A + VEGF): 153.63%; Cell Number, Average Total Cell Number (FGF4 + PDGF-A + VEGF): 16068; Sox17 Expression, % of positive control (FGF4 + PDGF-A + VEGF): 24.57%; Sox17 Expression, Average Total Intensity (FGF4 + PDGF-A + VEGF): 3.92E+07
